Laboratory results: article PMC3475447 (Bioscience Reports, 2012)

Target: T1, ATPBD of A. fulgidus CopB (Strep-tagged) (Archaeoglobus fulgidus, UniProt O30085)
T1 sequence (O30085 372-636): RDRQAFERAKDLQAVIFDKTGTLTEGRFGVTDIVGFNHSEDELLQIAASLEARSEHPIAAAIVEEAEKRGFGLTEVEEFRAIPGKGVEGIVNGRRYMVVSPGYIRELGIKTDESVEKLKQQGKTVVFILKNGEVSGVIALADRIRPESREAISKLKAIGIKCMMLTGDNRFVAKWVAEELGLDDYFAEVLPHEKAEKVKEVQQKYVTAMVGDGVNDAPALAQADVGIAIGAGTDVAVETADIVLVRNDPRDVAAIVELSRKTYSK
Assay: biochemical

## Nc1ncnc2c1ncn2[C@@H]1O[C@H](COP(=O)(O)OP(=O)(O)OP(=O)(O)O)[C@@H](O)[C@H]1O [ATP]
  Kd: 34 ± 2 µM
